# According to patent publication US9206199B2, “Inhibitors of the renal outer medullary potassium channel” (Merck Sharp & Dohme Corp., priority 2011, dated 2015):
# Like-named read-outs stand apart in the source and are kept apart here.
# Columns and labels:
# [1] = target: hROMK (hKir1.1) (Homo sapiens (Human), UniProt P48048); assay: Thallium Flux Assay; type: cell-based
# Procedure: At >80% confluency, aspirate the media from the flask and rinse with 10 mL Calcium/Magnesium-free PBS. […] To dislodge the cell, gently bang the side of the flask with your hand. Triturate the cells completely and then transfer the cells to 25 mL complete media. Centrifuge at 1,500 rpm for 6 min followed by resuspension in complete growth media and determine cell concentration. […] Under ideal growth conditions and appropriate tissue culture practices, this cell line is stable for 40-45 passages. FluxOR Kit Components (Invitrogen F10017) • FluxOR™ Reagent (Component A) • FluxOR™ Assay Buffer (Component B)—10× Concentrate • PowerLoad™ Concentrate (Component C)—100× Concentrate • Probenecid (Component D)—Lyophilized sample is kept at −20° C. Water soluble, 100× after solubilization in 1 mL water. […] Store at 4° C. • Thallium sulfate (Tl2SO4) Concentrate (Component G)—50 mM in water. […]
# The fluorescence intensity of wells containing 3 μM of a standard control ROMK inhibitor of the present invention is used to define the ROMK-sensitive component of thallium flux. Fluorescence in the presence of test compounds is normalized to control values to provide % fluorescence change.
# [2] = target: Kir1.1 (ROMK1) (Homo sapiens (Human), UniProt P48048); assay: Electrophysiology Assay (IonWorks Quattro whole cell voltage clamp)
# Sequence of Kir1.1 (ROMK1) (P48048 whole entry): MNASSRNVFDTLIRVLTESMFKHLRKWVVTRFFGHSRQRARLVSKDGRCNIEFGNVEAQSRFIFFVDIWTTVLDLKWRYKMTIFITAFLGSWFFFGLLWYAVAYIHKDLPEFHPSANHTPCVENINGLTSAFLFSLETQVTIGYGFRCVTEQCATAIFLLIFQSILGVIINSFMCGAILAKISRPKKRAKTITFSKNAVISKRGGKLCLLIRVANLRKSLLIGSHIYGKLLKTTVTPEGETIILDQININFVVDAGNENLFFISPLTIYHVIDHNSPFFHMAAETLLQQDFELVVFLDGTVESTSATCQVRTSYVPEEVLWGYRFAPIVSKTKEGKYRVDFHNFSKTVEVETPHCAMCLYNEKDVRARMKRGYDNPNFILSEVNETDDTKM
# Procedure: Chinese hamster ovary cells stably expressing Kir1.1 channels were maintained in T-75 flasks in cell culture media in a humidified 10% CO2 incubator at 37° C. Prior to an experiment, Kir1.1 expression was induced by overnight incubation with 1 mM sodium butyrate. […] After centrifugation, the cell pellet was resuspended in approximately 4.0 mL of bath solution and placed in the IonWorks instrument. The intracellular solution consisted of (in mM): 80 K gluconate, 40 KCl, 20 KF, 3.2 MgCl2, 3 EGTA, 5 Hepes, pH 7.4. Electrical access to the cytoplasm was achieved by perforation in 0.13 mg/mL amphotericin B for 4 min. […] Voltage protocols and current recordings were performed using the IonWorks HT software/hardware system. Currents were sampled at 1 kHz. No correction for liquid junction potentials was used. The test pulse, consisting of a 100 ms step to 0 mV from a holding potential of −70 mV, followed by a 100 ms voltage ramp from −70 mV to +70 mV, was applied before and after a 6 min compound incubation period. Test compounds were prepared by diluting DMSO stock solutions into the bath solution at 3× the final concentration and placed in the instrument in 96-well polypropylene plates. Current amplitudes were measured using the IonWorks software.
# Sequence of hROMK (hKir1.1) (P48048 whole entry): as above
compound,measurement,setting,value
"N#Cc1cc([C@@H]2CN3CCN(C(=O)Cc4cnc(-n5cnnn5)nc4)C[C@H]3CO2)ccc1F [Example 142, 2-fluoro-5-[(3R,9aS)-8-{[2-(1H-tetrazol-1-yl)pyrimidin-5-yl]acetyl}octahydropyrazino[2,1-c][1,4]oxazin-3-yl]benzonitrile]",IC50,"[1]; HEK293 cells stably expressing hROMK (hKir1.1), FLIPR-Tetra, read-out: Thallium Flux IC50",100 nM
O=C1OCCc2cc([C@@H]3CN4CCN(C(=O)Cc5ccc(-n6cnnn6)nc5)C[C@H]4CO3)ccc21 [Example 1],IC50,[2],60 nM
"Cc1nc(-n2cnnn2)ccc1CC(=O)N1CCN2C[C@H](c3ccc(F)c(C#N)c3F)OC[C@@H]2C1 [Example 89, 2,6-difluoro-3-[(3S,9aS)-8-{[2-methyl-6-(1H-tetrazol-1-yl)pyridin-3-yl]acetyl}octahydropyrazino[2,1-c][1,4]oxazin-3-yl]benzonitrile]",IC50,[1],70 nM
